Key:
Adenosine receptor A1 = target: T1, Adenosine receptor A1 (Rattus norvegicus, UniProt P25099); experiment: Binding affinity against adenosine A1 receptor in rat brain membrane preparations using N6-[3H]cyclohexyladenosine as a radioligand; type: cell membranes
T1 sequence (P25099 whole entry): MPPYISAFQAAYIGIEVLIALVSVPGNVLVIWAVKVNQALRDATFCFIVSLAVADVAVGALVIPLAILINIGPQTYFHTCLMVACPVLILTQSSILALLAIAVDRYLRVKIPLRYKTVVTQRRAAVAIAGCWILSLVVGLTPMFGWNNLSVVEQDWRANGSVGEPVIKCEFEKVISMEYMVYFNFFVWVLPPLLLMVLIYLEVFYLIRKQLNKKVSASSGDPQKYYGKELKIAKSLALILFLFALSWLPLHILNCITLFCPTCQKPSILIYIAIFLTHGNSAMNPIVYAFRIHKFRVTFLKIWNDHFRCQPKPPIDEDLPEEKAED

[1] = target: T2, Adenosine receptor A1 (Rattus norvegicus) (UniProt P25099); settings: Brain; Membrane
T2 sequence (whole entry): T1 sequence (P25099 whole entry)
Description: Binding affinity against adenosine A1 receptor in rat brain membrane preparations using N6-[3H]cyclohexyladenosine as radioligand, PCY = log (100000/IC50).
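For PCY in this document: radioligand displacement of N6-[3H]cyclohexyladenosine binding in rat brain membranes, PCY computed as the log of 100000 divided by IC50.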

| IC50 (Adenosine receptor A1) | PCY [1] | SMILES |
| --- | --- | --- |
| 0.31 µM | – | Cc1nn(C)c2c(=O)[nH]c(-c3ccc(Cl)cc3N)nc12 |
| – | 1.5 | Cc1nn(C)c2c(O)nc(-c3cccnc3)nc12 |
| 1.5 µM | – | Cn1c(=O)c2[nH]c(Cc3ccccc3)nc2n(C)c1=O |
| – | 2 | Cc1nn(C)c2c(O)nc(-c3ccc(Cl)c(Cl)c3)nc12 |
| – | 2.1 | Cc1nn(C)c2c(O)nc(-c3ccc([N+](=O)[O-])cc3)nc12 |
| – | 3.3 | Cn1c(=O)c2nc(-c3cccnc3)[nH]c2n(C)c1=O |
| – | 3.6 | Cn1c(=O)c2nc(-c3ccc(S(=O)(=O)O)cc3)[nH]c2n(C)c1=O |
| – | 2.4 | Cc1ccc(-c2nc(O)c3c(n2)c(C)nn3C)cc1 |
| – | 2.5 | COc1ccccc1-c1nc2c(=O)n(C)c(=O)n(C)c2[nH]1 |
| – | 2 | Cc1nn(C)c2c(O)nc(-c3ccncc3)nc12 |
| 0.05 µM | – | Cn1c(=O)c2nc(-c3cccc([N+](=O)[O-])c3)[nH]c2n(C)c1=O |
| – | 2.2 | CCn1nc(C)c2nc(-c3ccccc3)nc(O)c21 |
| 0.38 µM | – | Cc1nn(C)c2c(=O)[nH]c(-c3ccc(N)cc3)nc12 |
| 0.01 µM | – | Cn1c(=O)c2[nH]c(-c3cccc(N)c3)nc2n(C)c1=O |
| 2.3 µM | 1.6 | Cc1nn(C)c2c(O)nc(-c3ccc(S(=O)(=O)O)cc3)nc12 |
| 0.0055 µM | 4.3 | Cn1c(=O)c2nc(-c3ccccc3N)[nH]c2n(C)c1=O |
| 0.003 µM | 4.5 | CCn1c(=O)n(C)c(=O)c2[nH]c(-c3ccccc3)nc21 |
| 0.5 µM | – | COc1cc(OC)cc(-c2nc3c([nH]2)c(=O)n(C)c(=O)n3C)c1 |
| – | 1.9 | Cc1nn(C)c2c(O)nc(-c3cccc([N+](=O)[O-])c3)nc12 |
| 0.008 µM | – | Cn1c(=O)c2[nH]c(-c3ccc([N+](=O)[O-])cc3)nc2n(C)c1=O |
| – | 2.4 | Cc1nn(C)c2c(O)nc(-c3ccc(N)cc3)nc12 |
| – | 4.7 | Cn1c(=O)c2nc(-c3ccc(N)cc3)[nH]c2n(C)c1=O |
| 0.068 µM | – | Cc1nn(C)c2c(=O)[nH]c(-c3ccc(S(=O)(=O)NCCN(C)C)cc3)nc12 |
| – | 1.8 | Cn1c(=O)c2nc(Cc3ccccc3)[nH]c2n(C)c1=O |
| – | 2 | Cc1nn(C)c2c(O)nc(-c3ccccc3)nc12 |
| 1.31 µM | – | Cc1nn(C)c2c(=O)[nH]c(Cc3ccccc3)nc12 |
| 0.23 µM | 2.6 | Cc1nn(C)c2c(O)nc(-c3ccccc3N)nc12 |

| IC50 (Adenosine receptor A1) | PCY [1] | SMILES |
| --- | --- | --- |
| – | 1.9 | Cc1nn(C)c2c(O)nc(Cc3ccccc3)nc12 |
| 0.0008 µM | – | Cn1c(=O)c2[nH]c(-c3ccc(Cl)cc3)nc2n(C)c1=O |
| – | 2.5 | Cc1nn(C)c2c(O)nc(-c3ccc(Cl)cc3N)nc12 |
| 0.4 µM | – | Cc1ccc(-c2nc3c(C)nn(C)c3c(=O)[nH]2)cc1 |
| 1.03 µM | – | CC(Sc1nc(SC(C)C(N)=O)c2cnn(-c3ccccc3)c2n1)C(N)=O (centres undefined) |
| – | 1 | COc1ccccc1-c1nc(O)c2c(n1)c(C)nn2C |
| – | 1.8 | COc1cccc(-c2nc(O)c3c(n2)c(C)nn3C)c1 |
| – | 2.4 | Cc1nn(C)c2c(O)nc(-c3ccc(Cl)cc3)nc12 |
| 0.2 µM | – | COc1ccc(-c2nc3c([nH]2)c(=O)n(C)c(=O)n3C)c(OC)c1 |
| – | 1.3 | COc1ccc(-c2nc(O)c3c(n2)c(C)nn3C)c(OC)c1 |
| 0.25 µM | – | CCn1nc(C)c2nc(-c3ccncc3)[nH]c(=O)c21 |
| 20.1 µM | – | Cc1nn(C)c2c(=O)[nH]cnc12 |
| 0.82 µM | – | CCn1nc(C)c2nc(Cc3ccccc3)nc(O)c21 |
| – | 1.8 | Cc1nn(C)c2c(O)nc(-c3cccc(N)c3)nc12 |
| 0.0008 µM | – | Cc1ccc(-c2nc3c([nH]2)c(=O)n(C)c(=O)n3C)cc1 |
| – | 5.4 | Cn1c(=O)c2nc(-c3ccc(Cl)cc3N)[nH]c2n(C)c1=O |
| 1.47 µM | – | COc1cccc(-c2nc3c(C)nn(C)c3c(=O)[nH]2)c1 |
| – | 3.7 | COc1cccc(-c2nc3c(=O)n(C)c(=O)n(C)c3[nH]2)c1 |
| 0.0018 µM | – | Cn1c(=O)c2[nH]c(-c3ccc(N)cc3)nc2n(C)c1=O |
| 0.005 µM | 4.3 | Cn1c(=O)c2nc(-c3ccc(Cl)c(Cl)c3)[nH]c2n(C)c1=O |
| 0.05 µM | – | Cn1c(=O)c2[nH]c(-c3cccnc3)nc2n(C)c1=O |
| – | 0.7 | Cc1nn(C)c2c(O)ncnc12 |
| 7.06 µM | 1.2 | COc1cc(OC)cc(-c2nc(O)c3c(n2)c(C)nn3C)c1 |
| – | 1.7 | COc1ccc(-c2nc(O)c3c(n2)c(C)nn3C)cc1OC |
| 0.0004 µM | – | Cn1c(=O)c2[nH]c(-c3ccc(Cl)cc3N)nc2n(C)c1=O |
| 0.35 µM | – | COc1ccccc1-c1nc2c([nH]1)c(=O)n(C)c(=O)n2C |
